Experimental data as given in patent US11583507B2, “Direct AMPK activator compounds” (SOCIETE DES PRODUITS NESTLE S.A., priority 2018, dated 2023).
Values belong to the compound of their own block, whether it stands above or below them.

How the values were obtained:
[1] = target: T1, AMPK α2β1γ1 R298G (211 R298G) mutant (Homo sapiens, UniProt P54619+P54646+Q9Y478, R299G); assay: AMPK in vitro activity assay (HTRF-KinEASE), γ1 R298G mutant; format: biochemical; conditions: mutation in the γ1 AMP binding pocket
T1 construct: His; made in house; host or cells: bacteria
T1 sequence (P54646 whole entry): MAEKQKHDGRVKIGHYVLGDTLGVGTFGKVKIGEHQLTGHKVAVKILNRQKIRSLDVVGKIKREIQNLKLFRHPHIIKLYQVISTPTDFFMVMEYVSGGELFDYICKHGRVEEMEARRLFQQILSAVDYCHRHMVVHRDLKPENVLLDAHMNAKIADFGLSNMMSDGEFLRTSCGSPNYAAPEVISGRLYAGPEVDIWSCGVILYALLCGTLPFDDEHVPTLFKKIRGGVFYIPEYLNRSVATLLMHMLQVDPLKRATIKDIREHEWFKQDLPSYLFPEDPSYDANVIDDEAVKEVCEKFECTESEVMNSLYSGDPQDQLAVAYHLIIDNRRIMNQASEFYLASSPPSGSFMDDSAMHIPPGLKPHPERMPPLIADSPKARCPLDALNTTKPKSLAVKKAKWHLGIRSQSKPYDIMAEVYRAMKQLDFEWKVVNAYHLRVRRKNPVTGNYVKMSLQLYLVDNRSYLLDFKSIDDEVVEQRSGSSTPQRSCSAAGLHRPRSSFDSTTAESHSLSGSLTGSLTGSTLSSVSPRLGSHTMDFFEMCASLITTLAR
T1 sequence (Q9Y478 whole entry): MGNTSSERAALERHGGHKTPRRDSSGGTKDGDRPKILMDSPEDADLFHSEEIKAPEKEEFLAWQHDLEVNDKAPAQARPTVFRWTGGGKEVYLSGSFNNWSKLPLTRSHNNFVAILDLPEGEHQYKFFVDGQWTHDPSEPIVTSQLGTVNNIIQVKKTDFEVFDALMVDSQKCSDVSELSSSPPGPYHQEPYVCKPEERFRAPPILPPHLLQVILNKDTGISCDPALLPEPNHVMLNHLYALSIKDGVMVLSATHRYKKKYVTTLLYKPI
T1 sequence (P54619 whole entry R299G): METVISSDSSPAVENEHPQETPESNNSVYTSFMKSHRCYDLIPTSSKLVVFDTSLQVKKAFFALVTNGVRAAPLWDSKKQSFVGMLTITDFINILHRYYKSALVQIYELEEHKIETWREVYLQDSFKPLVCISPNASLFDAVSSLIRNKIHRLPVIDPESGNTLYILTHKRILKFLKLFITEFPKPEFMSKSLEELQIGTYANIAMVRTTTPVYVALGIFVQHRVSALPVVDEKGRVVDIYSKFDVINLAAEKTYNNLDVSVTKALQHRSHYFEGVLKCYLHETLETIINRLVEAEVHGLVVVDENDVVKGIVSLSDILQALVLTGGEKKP
Procedure: (§1) Lusianthridin (CAS 87530-30-1) was isolated from Thunia alba fruit. It was sourced from Analyticon (NP-012362). The plant was purchased through Analyticon's biomaterial supplier in 2003. The country of origin is Nepal. The AMPK heterotrimers were expressed in bacteria and purified through the His-α subunit by nickel purification. AMPK complexes were purified through gel filtration and phosphorylated by incubation with CaMKKβ, and further purified with a final gel filtration purification step. Phosphorylated purified AMPK was incubated with varying concentrations of ligand for 30 mins using substrate and reagents from the HTRF-KinEASE Cisbio assay kit (STK S1 Kit). Phosphorylation of the substrate was measured by incubating with donor and acceptor antibodies for 2 h at room temperature as per the manufacturer's protocol (and Coulerie et al., (2016) PMID: 27792327) and phosphorylated peptide detected by performing HTRF. The 665 nm/620 nm ratio was determined and the results are plotted as fold activation compared to the respective AMPK complex without any compound.

[2] = system: AMPK substrate, acetyl-CoA carboxylase (ACC); assay: pACC HTRF assay in U2OS Flp-In T-REx cells; format: cell-based; conditions: 1 h, varying concentrations, dose-dependent
Procedure: U2OS Flp-In T-REx cells were seeded at 100 K in a 96-well plate and left overnight at 37 C in DMEM GlutaMAX (Thermo Fisher Scientific) supplemented with 10% (vol/vol) FBS and 100 U/ml penicillin G, and 100 μg/ml streptomycin. Cells were treated for 1 h with varying concentrations of Lusianthridin in media lacking FBS and then cells were lysed in 50 μl of Cisbio lysis buffer #1 supplemented with blocking solution as per the manufacturer's protocol (Cisbio). Cells were lysed for 30 mins at room temperature before 16 μl of lysate was incubated with 4 μl of the HTRF antibodies (1:40 dilution of the acceptor and donor (p)ACC antibodies, as per the manufacturers protocol). Lysates were incubated overnight with the antibodies before 665 nm/620 nm ratio was determined using a MolecularDevices i3 plate reader (with a HTRF cartridge add-on). For western blot analysis, SDS-sample buffer was added to the remainder of the lysate, denatured at 95 C and then subjected to western blot analysis with phospho-specific and total ACC antibodies (Cell Signalling). Bands were visualized by incubating with Li-Cor secondary antibody and scanned on a Li-Cor Odyssey machine.

[3] = target: T2, AMPKα2β1γ1 (211) (Homo sapiens, UniProt P54619+P54646+Q9Y478); assay: AMPK in vitro activity assay (HTRF-KinEASE), phosphorylated bacterially-expressed complex; format: biochemical; conditions: fold activation vs complex without compound; 30 mins incubation
T2 construct: His; made in house; host or cells: bacteria
T2 sequence (P54646 whole entry): as the sequence (P54646 whole entry) above
T2 sequence (Q9Y478 whole entry): as the sequence (Q9Y478 whole entry) above
T2 sequence (P54619 whole entry): as the sequence (P54619 whole entry R299G) above, with G299R counted along it
Procedure: as §1

[4] = target: T3, AMPK α2β1γ1 S108A mutant (211 S108A) (Homo sapiens, UniProt P54619+P54646+Q9Y478, S108A); assay: AMPK in vitro activity assay (HTRF-KinEASE), β1 S108A mutant; format: biochemical
T3 construct: His; made in house; host or cells: bacteria
T3 sequence (P54646 whole entry): as the sequence (P54646 whole entry) above
T3 sequence (Q9Y478 whole entry S108A): as the sequence (Q9Y478 whole entry) above, with S108A counted along it
T3 sequence (P54619 whole entry): as the sequence (P54619 whole entry R299G) above, with G299R counted along it
Procedure: as §1

[5] = target: T4, AMPKα1β1γ1 (111) (Homo sapiens, UniProt P54619+Q13131+Q9Y478); assay: AMPK in vitro activity assay (HTRF-KinEASE), α1-containing complex; format: biochemical; conditions: fold activation vs complex without compound
T4 construct: His; made in house; host or cells: bacteria
T4 sequence (Q13131 whole entry): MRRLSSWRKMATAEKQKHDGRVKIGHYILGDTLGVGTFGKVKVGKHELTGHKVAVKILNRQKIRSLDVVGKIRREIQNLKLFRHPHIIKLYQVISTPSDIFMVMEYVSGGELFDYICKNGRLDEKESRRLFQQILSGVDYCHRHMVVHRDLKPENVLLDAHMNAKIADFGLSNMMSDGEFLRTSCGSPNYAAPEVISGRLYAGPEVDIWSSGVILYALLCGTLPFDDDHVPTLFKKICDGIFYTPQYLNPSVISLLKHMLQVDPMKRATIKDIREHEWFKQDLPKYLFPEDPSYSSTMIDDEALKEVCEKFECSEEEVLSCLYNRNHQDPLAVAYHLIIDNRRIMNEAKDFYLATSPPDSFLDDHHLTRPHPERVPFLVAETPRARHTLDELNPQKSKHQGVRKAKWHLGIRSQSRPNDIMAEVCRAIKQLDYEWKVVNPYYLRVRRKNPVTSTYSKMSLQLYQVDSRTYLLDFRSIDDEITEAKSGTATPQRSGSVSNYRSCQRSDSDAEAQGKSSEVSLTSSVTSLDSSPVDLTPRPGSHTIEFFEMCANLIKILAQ
T4 sequence (Q9Y478 whole entry): as the sequence (Q9Y478 whole entry) above
T4 sequence (P54619 whole entry): as the sequence (P54619 whole entry R299G) above, with G299R counted along it
Procedure: as §1

[6] = system: AMPK α2β1γ1 ΔCBM mutant (211 ΔCBM); assay: AMPK in vitro activity assay (HTRF-KinEASE), ΔCBM mutant; format: biochemical; conditions: carbohydrate-binding module deleted
Procedure: as §1

[7] = system: primary hepatocytes; assay: Lipogenesis ([1-14C]-acetate incorporation into fatty acids) in primary hepatocytes; format: cell-based, mouse; conditions: 1 h at 37 C, varying concentrations
Procedure: Hepatocyte isolation: The liver was first perfused with 50 ml perfusion buffer (Krebs-Hepes buffer with […] EDTA), followed with 50 ml collagenase A buffer (Krebs-Hepes buffer with 5 mM CaCl2 and 0.5 mg/ml collagenase). […] Hepatocytes were left to attach (3-4 h) and cultured overnight in M199 supplemented with antibiotics and 100 nM dexamethasone. Cells were used for experiments the following morning. For primary hepatocyte isolation see Example 4. For lipogenesis measurements in primary hepatocytes, cells were seeded at 600 K cells per well in a 6-well plate overnight. Media was replaced with fresh M199 media alone for 2 hours prior to incubation with varying concentrations of Lusianthridin for 1 h at 37 C, in the presence of [1-^14C]-acetate. The incorporation of [^14C] into fatty acids was determined in the lower organic layer after separation from the aqueous phase. […] Lipogenesis is controlled by the AMPK substrate ACC, and phosphorylation and inhibition of ACC by AMPK, leads to a decrease in lipogenesis. Lipogenesis was measured in primary hepatocytes by determining the incorporation of ^14C-labelled acetate into fatty acids. Lipogenesis was monitored in the presence or absence of varying concentrations of Lusianthridin for 1 h at 37 C. […] This observation is consistent with its ability to activate AMPK in hepatocytes, which leads to the phosphorylation and inhibition of ACC.

[8] = target: T5, AMPK α2β2γ1 (221) (Homo sapiens, UniProt O43741+P54619+P54646); assay: AMPK in vitro activity assay (HTRF-KinEASE), β2-containing complex; format: biochemical; conditions: fold activation vs complex without compound
T5 construct: His; made in house; host or cells: bacteria
T5 sequence (P54646 whole entry): as the sequence (P54646 whole entry) above
T5 sequence (O43741 whole entry): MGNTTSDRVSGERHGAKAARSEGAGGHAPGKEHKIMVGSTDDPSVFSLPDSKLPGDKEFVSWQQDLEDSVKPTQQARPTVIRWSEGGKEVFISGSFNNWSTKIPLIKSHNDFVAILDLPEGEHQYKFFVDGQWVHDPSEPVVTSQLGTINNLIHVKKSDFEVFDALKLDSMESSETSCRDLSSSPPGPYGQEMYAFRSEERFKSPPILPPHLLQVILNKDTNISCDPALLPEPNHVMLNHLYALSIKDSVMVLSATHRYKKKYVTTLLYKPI
T5 sequence (P54619 whole entry): as the sequence (P54619 whole entry R299G) above, with G299R counted along it
Procedure: as §1

[9] = system: differentiated C2C12 cells; assay: Glucose uptake (3H-2-deoxyglucose) into differentiated C2C12 cells; format: cell-based; conditions: Lusianthridin 100 μM for 4 h at 37 C
Procedure: C2C12 cells were maintained in DMEM GlutaMAX supplemented with 10% (vol/vol) FBS and 100 U/ml penicillin G, and 100 μg/ml streptomycin. C2C12 myoblasts were differentiated into myotubes by 7 days of culture in DMEM GlutaMAX supplemented with 2% (vol/vol) horse serum and antibiotics. Cells were transferred to serum-free media for 24 hours, before equilibrating with bicarbonate-free medium prior to treatment. Cells were treated with Control (DMSO 1% final concentration) or 100 μM Lusianthridin in the presence of ^3H-2-deoxyglucose (in Krebs-Hepes buffer containing sodium pyruvate). Cells were lysed and the quantity of ^3H determined in these samples using a scintillation counter.
Activation of AMPK in muscle cells has been previously shown to increase glucose uptake. […] Differentiated C2C12 cells were treated with either control or 100 μM Lusianthridin for 4 h at 37 C. Glucose uptake was determined by monitoring the uptake of ^3H-2-deoxyglucose into cells. […] This is consistent with the important role of AMPK in mediating glucose uptake in muscle.

[10] = system: mouse primary hepatocytes; assay: MTT cytotoxicity assay in mouse primary hepatocytes; conditions: 1 h at 37 C, Lusianthridin up to 100 μM

SMILES: Oc1ccc2c(c1)CCc1cccc(O)c1-2 [Compound 3, 9,10-Dihydrophenanthrene-2,5-diol]
phosphorylation of the AMPK substrate ACC (pACC HTRF) [2]: increase
activation of bacterially-expressed AMPKα2β1γ1 complexes [3]: activate

SMILES: Oc1ccc2c(c1)CCc1cc(O)cc(O)c1-2 [Compound 4, 9,10-Dihydrophenanthrene-2,4,7-triol]
phosphorylation of the AMPK substrate ACC (pACC HTRF) [2]: increase
activation of AMPK complexes with the β1 S108A mutation [4]: did not activate
activation of bacterially-expressed AMPKα1β1γ1 complexes [5]: activates
activation of α2β1γ1 ΔCBM mutant [6]: did not activate
rate of lipogenesis (DPM per μg of protein) [7]: dose-dependent decrease
activation of β2-containing AMPK complexes (α2β2γ1) [8]: did not activate
activation of bacterially-expressed AMPKα2β1γ1 complexes [3]: activate
fold increase in glucose uptake relative to control [9]: ~2 fold

SMILES: COc1cc(O)c2c(c1)CCc1ccc(O)cc1-2 [Compound 5, 7-Methoxy-9,10-dihydrophenanthrene-3,5-diol]
phosphorylation of the AMPK substrate ACC (pACC HTRF) [2]: increase
activation of bacterially-expressed AMPKα2β1γ1 complexes [3]: activate

SMILES: N#CC(C#N)=NNc1ccc(OC(F)(F)F)cc1 [FCCP, carbonyl cyanide P-(trifluoromethoxy) phenylhydrazone]
cell viability (MTT, percentage of viable cells) [10]: robust decrease in cell viability

SMILES: CC[C@H]1/C=C/C=C/C[C@@H](C)[C@H](O)[C@@](C)(O)C(=O)[C@@H](C)[C@H](O)[C@@H](C)C(=O)[C@@H](C)[C@H](O)[C@@H](C)/C=C/C(=O)O[C@@H]2[C@H](C)[C@H](CC1)O[C@]1(CC[C@H](C)[C@H](C[C@@H](C)O)O1)[C@H]2C [Oligomycin]
cell viability (MTT, percentage of viable cells) [10]: robust decrease in cell viability

More lines, main results first:

activation of AMPK α2β1γ1 γ1 R298G mutant complexes [1]: impaired
SMILES: Nc1ncnc2c1ncn2[C@@H]1O[C@H](COP(=O)(O)O)[C@@H](O)[C@H]1O [AMP, reference compound]

activation of bacterially-expressed AMPKα2β1γ1 complexes [3]: activate
SMILES: COc1cc(O)c2c(c1)CCc1cc(O)c(O)cc1-2 [Compound 2, 7-Methoxy-9,10-dihydrophenanthrene-2,3,5-triol]
phosphorylation of the AMPK substrate ACC (pACC HTRF) [2]: increase
